{"source": "patent US11096885B2", "about": "“Composition for enhancing skin elasticity or improving skin wrinkles comprising ginseng cell lysate” (AMOREPACIFIC CORPORATION, priority 2018, dated 2021)", "system": "MMP-1", "experiment": "MMP-1 ELISA assay: inhibition of MMP-1 production in UVB-irradiated human skin fibroblasts", "assay_type": "cell-based", "conditions": "HS68 cells; for MMP-1 (%): untreated control = 100, UVB group = 463.00", "method": "The MMP-1 ELISA assay was performed to confirm the effect of the composition of Example 1 and Comparative Example 1 on the inhibition of MMP-1 production, which is a skin tissue degrading enzyme, in UVB-irradiated human skin fibroblasts.\nSpecifically, HS68 cells, which are human skin fibroblasts, were seeded in a 48-well plate at a concentration of 2×10^4 cells/well, and then cultured in a DMEM medium (WelGene) containing 10% fetal bovine serum (FBS, WelGene) and 1% penicillin/streptomycin under a condition of 37° C. and 5% CO2. Then, the medium was removed and washed with DPBS (Dulbecco's Phosphate-Buffered Saline). Then, the cells from Example 1 and Comparative Example 1 diluted by concentration (125 ppm, 250 ppm, 500 ppm) in a DMEM medium containing no fetal bovine serum (FBS) and pretreated for 6 hours. Then, the medium was removed and was filled with 100 μl of DPBS, and then was irradiated at UVB 30 mJ/cm^2. The cells from Example 1 and Comparative Example 1 were diluted by concentration (250 ppm, 500 ppm) in a DMEM medium containing no fetal bovine serum (FBS), treated and cultured for 48 hours. After collecting the medium of the cultured cells, the amount of MMP-1 secretion was measured using a human MMP-1 ELISA kit (R&D Systems), and the absorbance was measured at 450 nm using an ELISA reader (Infinite M200Pro, Tecan). The cells attached to the bottom of the plate were washed with DPBS, lysed with 1N NaOH, and the amount of protein was measured using a BCA assay (Pierce® BCA protein assay kit, Thermo Scientific). The amount of MMP-1 secretion per certain protein was corrected and expressed as a percentage (%). As a positive control group, 1 μM and 10 μM of retinoic acid (RA) were used. Statistical significance between samples was used by the student's t-test and was analyzed to be statistically significant when the p-value was 0.05 or less (* P<0.05, ** p<0.01, *** p<0.001)."}
{"compound": "CC1=C(/C=C/C(C)=C/C=C/C(C)=C/C(=O)O)C(C)(C)CCC1", "note": "[RA, retinoic acid]", "values": [{"measurement": "reduction of MMP-1 secretion as compared to the UVB irradiation group", "setting": "UVB 30 mJ/cm^2, 1 μM", "result": 111.06, "unit": "%"}, {"measurement": "MMP-1 (%)", "setting": "UVB 30 mJ/cm^2, 1 μM", "result": "351.95 ± 22.95", "unit": "%"}, {"measurement": "reduction of MMP-1 secretion as compared to the UVB irradiation group", "setting": "UVB 30 mJ/cm^2, 10 μM", "result": 239.71, "unit": "%"}, {"measurement": "MMP-1 (%)", "setting": "UVB 30 mJ/cm^2, 10 μM", "result": "223.29 ± 114.85", "unit": "%"}]}
